Data reported in patent US7494991B2, “Rifamycin analogs and uses thereof” (ActivBiotics Pharma, LLC, priority 2003, dated 2009).
Converted amounts (≈) assume the structure as drawn.

Experiments:
S. aureus = experiment: MIC assay, S. aureus; assay type: cell-based
S. pneumo. = experiment: MIC assay, S. pneumo.; assay type: cell-based, S. pneumoniae
H. flu = experiment: MIC assay, H. flu; assay type: cell-based, H. influenza
C. trachomatis = experiment: MIC assay, C. trachomatis; assay type: cell-based
E. faecalis = experiment: MIC assay, E. faecalis; assay type: cell-based
E. coli = experiment: MIC assay, E. coli; assay type: cell-based

SMILES | MIC (μg/mL) S. aureus (S. aureus) [µg/mL] | MIC (μg/mL) S. pneumo. (S. pneumo.) [µg/mL] | MIC (μg/mL) H. flu (H. flu) [µg/mL] | MIC (μg/mL) C. trachomatis (C. trachomatis) [µg/mL] | MIC (μg/mL) E. faecalis (E. faecalis) [µg/mL] | MIC (μg/mL) E. coli (E. coli) [µg/mL]
CO[C@H]1/C=C/O[C@@]2(C)Oc3c(C)c(O)c4c(=O)c(c5oc6c7c(cc(O)c6nc-5c4c3C2=O)N(C)CCCN7C)NC(=O)/C(C)=C\C=C\[C@H](C)[C@H](O)[C@@H](C)[C@@H](O)[C@@H](C)[C@H](OC(C)=O)[C@@H]1C [Compound 3] | 0.06 (≈ 66.7 nM) | 0.008 (≈ 8.9 nM) | 2 (≈ 2220 nM) | 6.4e-05 (≈ 0.0712 nM) | 4 (≈ 4450 nM) | >8
CO[C@H]1/C=C/O[C@@]2(C)Oc3c(C)c(O)c4c(=O)c(c5oc6c7c(cc(O)c6nc-5c4c3C2=O)N(C)CCCN7C)NC(=O)/C(C)=C\C=C\[C@H](C)[C@H](O)[C@@H](C)[C@@H](O)[C@@H](C)[C@H](O)[C@@H]1C [Compound 4] | 0.12 (≈ 140 nM) | 0.00012 (≈ 0.14 nM) | 2 (≈ 2330 nM) | 0.001 (≈ 1.17 nM) | 1 (≈ 1170 nM) | >8
CO[C@H]1/C=C/O[C@@]2(C)Oc3c(C)c(O)c4c(=O)c(c5oc6c7c(cc(O)c6nc-5c4c3C2=O)N(C)CCN7C)NC(=O)/C(C)=C\C=C\[C@H](C)[C@H](O)[C@@H](C)[C@@H](O)[C@@H](C)[C@H](OC(C)=O)[C@@H]1C [Compound 1] | 0.008 (≈ 9.04 nM) | 0.00012 (≈ 0.136 nM) | 1 (≈ 1130 nM) | 6.4e-05 (≈ 0.0723 nM) | 1 (≈ 1130 nM) | 8 (≈ 9040 nM)
CO[C@H]1/C=C/O[C@@]2(C)Oc3c(C)c(O)c4c(=O)c(c5oc6c7c(cc(O)c6nc-5c4c3C2=O)N(C)CCN7C)NC(=O)/C(C)=C\C=C\[C@H](C)[C@H](O)[C@@H](C)[C@@H](O)[C@@H](C)[C@H](O)[C@@H]1C [Compound 2] | 0.5 (≈ 593 nM) | 0.06 (≈ 71.2 nM) | 2 (≈ 2370 nM) | 0.001 (≈ 1.19 nM) | 1 (≈ 1190 nM) | 8 (≈ 9490 nM)
